Laboratory results as given in patent US20190292174A1, “MICROBIOCIDAL OXADIAZOLE DERIVATIVES” (SYNGENTA PARTICIPATIONS AG, priority 2016, published 2019).

Assays:
[1] = test system: Puccinia recondita f. sp. tritici; experiment: Puccinia recondita f. sp. tritici / wheat / leaf disc preventative (brown rust); type: in vivo; conditions: foliar, wheat leaf segments cv. Kanzler, preventative (inoculated 1 day after application), compared to untreated control
Description: Leaf disks or leaf segments of various plant species are cut from plants grown in a greenhouse. The cut leaf disks or segments are placed in multiwell plates (24-well format) onto water agar. The leaf disks are sprayed with a test solution before (preventative) or after (curative) inoculation. Compounds to be tested are prepared as DMSO solutions (max. 10 mg/ml) which are diluted to the appropriate concentration with 0.025% Tween20 just before spraying. The inoculated leaf disks or segments are incubated under defined conditions (temperature, relative humidity, light, etc.) according to the respective test system. A single evaluation of disease level is carried out 3 to 14 days after inoculation, depending on the pathosystem. Percent disease control relative to the untreated check leaf disks or segments is then calculated. Wheat leaf segments cv. Kanzler are placed on agar in multiwell plates (24-well format) and sprayed with the formulated test compound diluted in water. The leaf disks are inoculated with a spore suspension of the fungus 1 day after application. The inoculated leaf segments are incubated at 19° C. and 75% rh under a light regime of 12 h light/12 h darkness in a climate cabinet and the activity of a compound is assessed as percent disease control compared to untreated when an appropriate level of disease damage appears in untreated check leaf segments (7-9 days after application).

Phakopsora pachyrhizi = Phakopsora pachyrhizi / soybean / leaf disc preventative (Asian soybean rust); type: in vivo; conditions: foliar, soybean leaf disks, compared to untreated control
Description: Leaf disks or leaf segments of various plant species are cut from plants grown in a greenhouse. The cut leaf disks or segments are placed in multiwell plates (24-well format) onto water agar. The leaf disks are sprayed with a test solution before (preventative) or after (curative) inoculation. Compounds to be tested are prepared as DMSO solutions (max. 10 mg/ml) which are diluted to the appropriate concentration with 0.025% Tween20 just before spraying. The inoculated leaf disks or segments are incubated under defined conditions (temperature, relative humidity, light, etc.) according to the respective test system. A single evaluation of disease level is carried out 3 to 14 days after inoculation, depending on the pathosystem. Percent disease control relative to the untreated check leaf disks or segments is then calculated. Soybean leaf disks are placed on water agar in multiwell plates (24-well format) and sprayed with the formulated test compound diluted in water. One day after application leaf discs are inoculated by spraying a spore suspension on the lower leaf surface. After an incubation period in a climate cabinet of 24-36 hours in darkness at 20° C., and 75% rh leaf disc are kept at 20° C. with 12 h light/day and 75% rh. The activity of a compound is assessed as percent disease control compared to untreated when an appropriate level of disease damage appears in untreated check leaf disks (12-14 days after application).

[2] = test system: Puccinia recondita f. sp. tritici; experiment: Puccinia recondita f. sp. tritici / wheat / leaf disc curative (brown rust); type: in vivo; conditions: foliar, 24 h, wheat leaf segments cv. Kanzler, curative (applied 1 day after inoculation), compared to untreated control, read-out: control of Puccinia recondita f. sp. tritic
Description: Leaf disks or leaf segments of various plant species are cut from plants grown in a greenhouse. The cut leaf disks or segments are placed in multiwell plates (24-well format) onto water agar. The leaf disks are sprayed with a test solution before (preventative) or after (curative) inoculation. Compounds to be tested are prepared as DMSO solutions (max. 10 mg/ml) which are diluted to the appropriate concentration with 0.025% Tween20 just before spraying. The inoculated leaf disks or segments are incubated under defined conditions (temperature, relative humidity, light, etc.) according to the respective test system. A single evaluation of disease level is carried out 3 to 14 days after inoculation, depending on the pathosystem. Percent disease control relative to the untreated check leaf disks or segments is then calculated. Wheat leaf segments cv. Kanzler are placed on agar in multiwell plates (24-well format). The leaf segments are inoculated with a spore suspension of the fungus. Plates are stored in darkness at 19° C., and 75% rh. The formulated test compound diluted in water is applied 1 day after inoculation. The leaf segments are incubated at 19° C., and 75% rh under a light regime of 12 h light/12 h darkness in a climate cabinet and the activity of a compound is assessed as percent disease control compared to untreated when an appropriate level of disease damage appears in untreated check leaf segments (6-8 days after application).

[3] = test system: Glomerella lagenarium (Colletotrichum lagenarium); experiment: Glomerella lagenarium (Colletotrichum lagenarium) liquid culture / cucumber / preventative (anthracnose); type: cell-based; conditions: Colletotrichum orbiculare, liquid culture (PDB), growth inhibition measured photometrically 3-4 days after application, compared to untreated control
Description: […] fragments or conidia suspensions of a fungus prepared either freshly from liquid cultures of the fungus or from cryogenic storage, are directly mixed into nutrient broth. DMSO solutions of the test compound (max. 10 mg/ml) are diluted with 0.025% Tween20 by a factor of 50 and 10 μl of this solution is pipetted into a microtiter plate (96-well format). The nutrient broth containing the fungal spores/mycelia fragments is then added to give an end concentration of the tested compound. The test plates are incubated in the dark at 24° C., and 96% relative humidity. The inhibition of fungal growth is determined photometrically after 2 to 7 days, depending on the pathosystem, and percent antifungal activity relative to the untreated check is calculated. Conidia of the fungus from cryogenic storage are directly mixed into nutrient broth (PDB potato dextrose broth). Alter placing a (DMSO) solution of test compound into a microtiter plate (96-well format), the nutrient broth containing the fungal spores is added. The test plates are incubated at 24° C., and the inhibition of growth is measured photometrically 3-4 days after application.

SMILES: CC(C)(C)NC(=O)CN(C(=O)c1ccc(-c2noc(C(F)(F)F)n2)cc1)N1CCOC1=O [Compound 1.2, N-[2-(tert-butylamino)-2-oxo-ethyl]-N-(2-oxooxazolidin-3-yl)-4-[5-(trifluoromethyl)-1,2,4-oxadiazol-3-yl]benzamide]
- pest or weed control at 200 ppm [1]: ≥ 80%
- pest or weed control at 200 ppm (Phakopsora pachyrhizi): ≥ 80%

SMILES: CC(=O)NNC(=O)c1ccc(-c2noc(C(F)(F)F)n2)cc1F [Compound 1.4, N′-acetyl-2-fluoro-4-[5-(trifluoromethyl)-1,2,4-oxadiazol-3-yl]benzohydrazide]
- pest or weed control at 200 ppm [1]: ≥ 80%
- pest or weed control at 200 ppm [2]: ≥ 80%
- pest or weed control at 200 ppm (Phakopsora pachyrhizi): ≥ 80%

SMILES: NN(C(=O)c1ccccc1)C(=O)c1ccc(-c2noc(C(F)(F)F)n2)cc1 [Compound 1.5, N-benzoyl-4-[5-(trifluoromethyl)-1,2,4-oxadiazol-3-yl]benzohydrazide]
- inhibition of growth at 20 ppm [3]: ≥ 80%
- pest or weed control at 200 ppm [1]: ≥ 80%
- melting point: 115.3 to 118.6 °C

SMILES: O=C(NN1CCCCC1=O)c1ccc(-c2noc(C(F)(F)F)n2)cc1 [Compound 1.7, N-(2-oxo-1-piperidyl)-4-[5-(trifluoromethyl)-1,2,4-oxadiazol-3-yl]benzamide]
- pest or weed control at 200 ppm [1]: ≥ 80%
- pest or weed control at 200 ppm (Phakopsora pachyrhizi): ≥ 80%
- melting point: 192 to 216 °C

SMILES: CN1CCN(NC(=O)c2ccc(-c3noc(C(F)(F)F)n3)cc2)C1=O [Compound 1.8, N-(3-methyl-2-oxo-imidazolidin-1-yl)-4-[5-(trifluoromethyl)-1,2,4-oxadiazol-3-yl]benzamide]
- pest or weed control at 200 ppm [1]: ≥ 80%
- pest or weed control at 200 ppm (Phakopsora pachyrhizi): ≥ 80%
- melting point: 238 to 245 °C

SMILES: O=C1CN(NC(=O)c2ccc(-c3noc(C(F)(F)F)n3)cc2)C(=O)N1 [Compound 1.9]
- pest or weed control at 200 ppm [2]: ≥ 80%
- pest or weed control at 200 ppm (Phakopsora pachyrhizi): ≥ 80%
- melting point: 192 to 196 °C

SMILES: O=C(NN1CCc2ccccc21)c1ccc(-c2noc(C(F)(F)F)n2)cc1 [Compound 1.10, N-indolin-1-yl-4-[5-(trifluoromethyl)-1,2,4-oxadiazol-3-yl]benzamide]
- inhibition of growth at 20 ppm [3]: ≥ 80%
- pest or weed control at 200 ppm [1]: ≥ 80%
- melting point: 167 to 170 °C

SMILES: O=C(Nn1ccc2ccccc21)c1ccc(-c2noc(C(F)(F)F)n2)cc1 [Compound 1.11, N-indol-1-yl-4-[5-(trifluoromethyl)-1,2,4-oxadiazol-3-yl]benzamide]
- inhibition of growth at 20 ppm [3]: ≥ 80%
- pest or weed control at 200 ppm [1]: ≥ 80%
- melting point: 188 to 190 °C

SMILES: O=C(NN1CCCCC1=O)c1c(F)cc(-c2noc(C(F)(F)F)n2)cc1F [Compound 1.12, 2,6-difluoro-N-(2-oxo-1-piperidyl)-4-[5-(trifluoromethyl)-1,2,4-oxadiazol-3-yl]benzamide]
- inhibition of growth at 20 ppm [3]: ≥ 80%
- melting point: 205 to 209 °C

SMILES: Cc1cc(-c2noc(C(F)(F)F)n2)cnc1C(=O)NN1CCCCC1=O [Compound 1.13, 3-methyl-N-(2-oxo-1-piperidyl)-5-[5-(trifluoromethyl)-1,2,4-oxadiazol-3-yl]pyridine-2-carboxamide]
- melting point: 159 to 162 °C

SMILES: O=C(Cc1ccc(-c2noc(C(F)(F)F)n2)cc1)NN1CCCCC1=O [Compound 1.14, N-(2-oxo-1-piperidyl)-2-[4-[5-(trifluoromethyl)-1,2,4-oxadiazol-3-yl]phenyl]acetamide]
- pest or weed control at 200 ppm [1]: ≥ 80%
- pest or weed control at 200 ppm [2]: ≥ 80%
- pest or weed control at 200 ppm (Phakopsora pachyrhizi): ≥ 80%
- melting point: 165 to 170 °C

SMILES: O=C(NN1CCOCC1)c1ccc(-c2noc(C(F)(F)F)n2)c(F)c1 [Compound 1.16, 3-fluoro-N-morpholino-4-[5-(trifluoromethyl)-1,2,4-oxadiazol-3-yl]benzamide]
- pest or weed control at 200 ppm [1]: ≥ 80%
- pest or weed control at 200 ppm (Phakopsora pachyrhizi): ≥ 80%
- melting point: 140 to 160 °C

SMILES: O=C(Cc1ccc(-c2noc(C(F)(F)F)n2)cc1)NN1CCOCC1 [Compound 1.17, N-morpholino-2-[4-[5-(trifluoromethyl)-1,2,4-oxadiazol-3-yl]phenyl]acetamide]
- pest or weed control at 200 ppm [1]: ≥ 80%
- pest or weed control at 200 ppm [2]: ≥ 80%
- pest or weed control at 200 ppm (Phakopsora pachyrhizi): ≥ 80%
- melting point: 182 to 188 °C

SMILES: O=C(NNCCO)c1ccc(-c2noc(C(F)(F)F)n2)cc1 [Compound 1.18, N′-(2-hydroxyethyl)-4-[5-(trifluoromethyl)-1,2,4-oxadiazol-3-yl]benzohydrazide]
- inhibition of growth at 20 ppm [3]: ≥ 80%
- pest or weed control at 200 ppm [1]: ≥ 80%
- pest or weed control at 200 ppm [2]: ≥ 80%
- melting point: 140 to 149 °C

SMILES: O=C(NN1CCOC1=O)c1ccc(-c2noc(C(F)(F)F)n2)c(F)c1 [Compound 1.25, 3-fluoro-N-(2-oxooxazolidin-3-yl)-4-[5-(trifluorormethyl)-1,2,4-oxadiazol-3-yl]benzamide]
- inhibition of growth at 20 ppm [3]: ≥ 80%
- pest or weed control at 200 ppm [1]: ≥ 80%
- pest or weed control at 200 ppm [2]: ≥ 80%
- melting point: 146 to 166 °C

SMILES: O=C(Cc1ccc(-c2noc(C(F)(F)F)n2)cc1F)NN1CCOCC1 [Compound 1.28, 2-[2-fluoro-4-[5-(trifluoromethyl)-1,2,4-oxadiazoi-3-yl]phenyl]-N-morpholino-acetamide]
- inhibition of growth at 20 ppm [3]: ≥ 80%
- pest or weed control at 200 ppm [2]: ≥ 80%
- melting point: 201 to 203 °C

SMILES: O=C(Cc1ccc(-c2noc(C(F)(F)F)n2)cc1F)NN1CCCCC1=O [Compound 1.29, 2-[2-fluoro-4-[5-(trifluoromethyl)-1,2,4-oxadiazol-3-yl]phenyl]-N-(2-oxo-1-piperidyl)acetamide]
- inhibition of growth at 20 ppm [3]: ≥ 80%
- pest or weed control at 200 ppm [1]: ≥ 80%
- pest or weed control at 200 ppm [2]: ≥ 80%
- melting point: 154 to 156 °C

SMILES: CN(C)NC(=O)Cc1ccc(-c2noc(C(F)(F)F)n2)c(F)c1 [Compound 1.30, 2-[3-fluoro-4-[5-(trifluoromethyl)-1,2,4-oxadiazol-3-yl]phenyl]-N′,N′-dimethyl-acetohydrazide]
- inhibition of growth at 20 ppm [3]: ≥ 80%
- pest or weed control at 200 ppm [1]: ≥ 80%
- pest or weed control at 200 ppm [2]: ≥ 80%
- melting point: 163 to 165 °C

SMILES: O=C(Cc1ccc(-c2noc(C(F)(F)F)n2)c(F)c1)NN1CCOCC1 [Compound 1.31, 2-[3-fluoro-4-[5-(trifluoromethyl)-1,2,4-oxadiazol-3-yl]phenyl]-N-morpholino-acetamide]
- pest or weed control at 200 ppm [2]: ≥ 80%
- melting point: 207 to 209 °C

SMILES: O=C(Cc1ccc(-c2noc(C(F)(F)F)n2)c(F)c1)NN1CCCCC1=O [Compound 1.32, 2-[3-flouro-4-[5-(trifluoromethyl)-1,2,4-oxadiazol-3-yl]phenyl]-N-(2-oxo-1-piperidyl)acetamide]
- inhibition of growth at 20 ppm [3]: ≥ 80%
- pest or weed control at 200 ppm [1]: ≥ 80%
- pest or weed control at 200 ppm [2]: ≥ 80%
- melting point: 161 to 163 °C
